Assay results published in ChEMBL document CHEMBL5385886, “Design, synthesis and evaluation of nitric oxide releasing derivatives of 2,4-diaminopyrimidine as novel FAK inhibitors for intervention of metastatic triple-negative breast cancer” (Eur J Med Chem, 2023).

Assays:
MDA-MB-231 [1] = test: Antiproliferative activity against human MDA-MB-231 cells assessed as inhibition of cell proliferation incubated for 72 hrs by MTT assay; type: functional, cell-based; conditions: MDA-MB-231, 72 h
MDA-MB-231 [2] = test: Antiproliferative activity against human MDA-MB-231 cells assessed as inhibition of cell proliferation incubated for 72 hrs in presence of 4-((8-hydroxyoctyl)oxy)-3-(phenylsulfonyl)-1,2,5-oxadiazole 2-oxide by MTT assay; type: functional, cell-based; conditions: MDA-MB-231, 72 h

IC50 (MDA-MB-231 [1]): 1950 nM
IC50 (MDA-MB-231 [2]): 1220 nM
SMILES: CNC(=O)c1ccccc1Nc1nc(Nc2ccc(CC(=O)O)cc2)ncc1Cl
